Structures are written as SMILES.

This data set can be described thus: gradient 5% acetonitrile 3 min, to 50% in 2 min, to 85% in 15 min, held 3 min, 100 µL/min. The note with it: column: Zorbax Extend-C18 2.1 x 50 mm; eluents: water / acetonitrile, 0.1% formic acid. The essentials:
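A Zorbax Extend-C18 column (2.1 × 50 mm, 1.8 μm) run at 100 μL/min with water and acetonitrile, both containing 0.1% formic acid, separated mixtures of ~100 pure standards. The HPLC was coupled to a quadrupole time-of-flight mass spectrometer operated in positive and negative ionization mode, with dead and dwell volumes of 40 μL and 900 μL. Each retention time was taken from a computationally picked adduct peak that was then manually inspected.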
In the case of `CCc1nc2cc(-c3noc(-c4sccc4C)n3)ccc2o1`, the RP-LC retention time amounted to 1210 s. Regarding `COc1ccccc1C1NC(=O)NC(C)=C1C(=O)OC1CCCC1C` (centres undefined), the RP-LC retention time was determined as 924 s. As to `O=S(=O)(c1cc(-c2nnc(C3CCC3)o2)co1)N1CCN(c2cccc(Cl)c2)CC1`, the RP-LC retention time amounted to 1120 s. Under `CCOc1nc2ccccc2nc1N1CCCC(C(=O)Nc2ccc(Br)cc2C)C1` (centres undefined) stands 1320 s; under `COc1ccccc1C1CC(=O)Nc2c(S(=O)(=O)c3ccccc3)csc21` (centres undefined), 946 s; under `CCN(C(=O)Cc1ccccc1)c1nc(-c2ccc(C)cc2)cs1`, 1320 s. Take `O=c1ccc(-c2ccccc2)nn1Cc1nc(-c2ccc(Cl)cc2)no1`: the RP-LC retention time worked out at 1080 s. The compound `CC(C)c1ccc(Nc2c(-c3ccc(N(C)C)cc3)nc3cnccn23)cc1` came in with an RP-LC retention time of 1010 s. Under `Cc1cc(-c2nnc(C3CCC3)o2)c(C)n1CC(=O)Nc1ccccc1F` stands 887 s; under `c1ccc(CNc2nc(NCc3ccccc3)c3ccccc3n2)cc1`, 796 s. `CCCNS(=O)(=O)c1cc2c(cc1C)CCN2C(=O)CC`: the RP-LC retention time worked out at 818 s. For `CCN(Cc1ccccc1)C(=O)Cn1cccc1-c1nnc(-c2ccccc2)o1` the value was 1050 s; for `COC(=O)c1ccc(NS(=O)(=O)c2cc(-c3c(C)noc3NC(C)=O)ccc2OC)cc1`, 720 s.

`Cc1cc(NC(=O)Cn2cnc(-c3cccs3)cc2=O)no1` had an RP-LC retention time of 669 s. As for `Cc1c2c(cc3c1[nH]c1ccccc13)C=NCC2`, the RP-LC retention time amounted to 630 s.

With `COc1ccc(-c2cc(N3CCC(NC(=O)c4ccccc4OC)C3)n[nH]2)cc1` (centres undefined), the RP-LC retention time was 712 s.

Consider `COc1ccc(-n2nc(C(=O)N3CCC(C(N)=O)CC3)c(=O)cc2OC)cc1OC`, for which the RP-LC retention time was found to be 588 s. In turn, `COc1ccc2c(c1)C1(CCN(C(=O)NCCC(C)C)C1)C(=O)N2C` (centres undefined) returned an RP-LC retention time of 770 s.

Compound `COc1ccc(C2(C(=O)N3CCO[C@@H](COc4ccccn4)[C@@H]3c3ccccc3)CC2)cc1` gave an RP-LC retention time of 1070 s. For `Cc1cc(Cl)ccc1NC(=O)C1CC(=O)N(c2ccc3c(c2)CCN3C(=O)C2CC2)C1` (centres undefined), the RP-LC retention time stood at 843 s. In turn, `Cc1ccc(-c2noc(C(=O)N3CCCC3)n2)cc1S(=O)(=O)N1CCN(c2ncccn2)CC1` registered an RP-LC retention time of 959 s. Turning to `COc1cc(Nc2nc3c(s2)CCCC3c2ccc(F)cc2)ccc1-n1cnc(C)c1` (centres undefined), the RP-LC retention time amounted to 1010 s.

For `COc1cccc(-n2c(=O)c(C(=O)Nc3ccccc3)c(O)c3cccnc32)c1`, the RP-LC retention time was determined as 1220 s.

`CC(C)C(=O)N1CCC2(CC1)CCC(O)(CN(C)C)CC2` came in with an RP-LC retention time of 559 s. As to `COCc1nc2cccnc2n1C1CCN(C(=O)Nc2ccccc2C(=O)OC)CC1`, the RP-LC retention time was determined as 784 s. On to `CCC(C)n1[nH]c(=O)c2c1NC(=O)CSC2c1ccc(OC)c(OC)c1` (centres undefined), for which the RP-LC retention time is 654 s. For `CSc1ccc(CNC(=O)Cn2cnc3nc4c(cc3c2=O)CC(C)CC4)cc1` (centres undefined) the value was 781 s; for `Cc1cccc(NC(=O)CN2c3ccccc3NC3=C(C(=O)CCC3)C2c2ccco2)c1C` (centres undefined), 851 s; for `COCCCNC(=O)C1CCCN(c2ncc(-c3ccc(F)cc3)cn2)C1` (centres undefined), 824 s. For `Cn1nc(C(=O)N2CCCC(C(=O)Nc3ccccc3)C2)c2c1CCN(C(=O)C1CCCC1)C2` (centres undefined), the RP-LC retention time worked out at 786 s. For the compound `O=C(Cn1cc(-c2ccccc2)c2ncnc(N3CCCCC3)c21)Nc1ccccc1`, the RP-LC retention time came out at 798 s.

`Cc1c(-c2noc(-c3ccc(F)cc3)n2)nnn1Cc1ccc(F)cc1` displayed an RP-LC retention time of 1060 s. Take `O=C(Cn1ncccc1=O)Nc1nccs1`: the RP-LC retention time was 554 s. In the case of `Cc1cc(C)c(NC(=O)COc2cc(C)nc(N3CCN(c4ccccc4)CC3)n2)c(C)c1`, the RP-LC retention time is 942 s. Regarding `Cn1ncc2c3ccccc3n(CCCC(=O)NCc3ccco3)c2c1=O`, the RP-LC retention time is 787 s. Turning to `CC1=C(c2ccccc2)S(=O)(=O)N=C1N1CCCN(C(=O)NC2CCCC2)CC1`, the RP-LC retention time stood at 778 s.

`O=C(NCc1ccc(F)c(Cl)c1)C1=C2CCCN2c2ccc(F)cc2S1(=O)=O` displayed an RP-LC retention time of 934 s. Under `CCc1cccc(Nc2nc3ccncc3n(Cc3ccccc3)c2=O)c1` stands 742 s; under `CC1(C(=O)NCc2ccccc2)CCCN(C(=O)Nc2ccc(Cl)cc2)C1` (centres undefined), 962 s.

In turn, `CCC(C)NS(=O)(=O)c1cc(-c2nnc(-c3ccccc3)o2)ccc1F` (centres undefined) displayed an RP-LC retention time of 966 s. Regarding `CCCCCOC(=O)Nc1nc(=O)n([C@@H]2O[C@H](C)[C@H](O)C2O)cc1F` (some centres undefined), the RP-LC retention time worked out at 682 s. Compound `O=c1n(Cc2ccc(F)cc2)nc2c(S(=O)(=O)N3CCCCCC3)cccn12` came in with an RP-LC retention time of 956 s.

Regarding `CCN1CCN(c2c(C(=O)c3ccc(C)cc3)cnc3cc(OC)c(OC)cc23)CC1`, the RP-LC retention time turned out to be 559 s.

Compound `Cc1ccc(-c2noc(-c3sccc3NC(=O)C3(c4ccccc4)CC3)n2)cc1` returned an RP-LC retention time of 828 s.

Regarding `O=C1CC(c2nc(-c3ccccn3)no2)CN1c1ccc2c(c1)OCO2` (centres undefined), the RP-LC retention time was 707 s. `COc1cccc(OC)c1C(=O)Nc1nnc(SCc2nnc(-c3ccccc3)o2)s1` came in with an RP-LC retention time of 832 s. Under `COc1cccc(NC(=O)C2CCCN(c3nnc4ccc(Cl)cn34)C2)c1` (centres undefined) stands 774 s. On to `Cc1ccc(-n2c(N3CCC(C(=O)NC4CC4)CC3)nc3ccsc3c2=O)cc1`, for which the RP-LC retention time worked out at 719 s. `O=C(Cn1nc2c(N3CCCCCC3)nccn2c1=O)Nc1ccc(F)cc1F` had an RP-LC retention time of 705 s. Under `CN(C)S(=O)(=O)c1ccc(C(=O)N2CC(=O)Nc3ccc(Cl)cc3C2c2ccccc2)cc1` (centres undefined) stands 873 s; under `Cc1ccc(C)c(NC(=O)Nc2c(-c3ccc(F)cc3)nc3ccccn23)c1`, 697 s. Under `CCCCNC(=O)CCC1CCN(c2cc(NC3CC3)ncn2)CC1` stands 629 s. In the case of `CCn1cc(C(=O)Nc2ccc(F)c(C)c2)c2cccnc21`, the RP-LC retention time was 896 s. `COc1ccc(NC(=O)N2CCC(c3cc(N)on3)CC2)cc1`: the RP-LC retention time is 640 s. As to `CC(C)(C)C(=O)Nc1ccc(C(=O)NCCNC(=O)Nc2ccccc2Cl)cc1`, the RP-LC retention time turned out to be 738 s.

For the compound `COc1ccc(S(=O)(=O)NC2CCN(C(=O)CCc3c[nH]c4ccccc34)CC2)cc1`, the RP-LC retention time turned out to be 788 s.

Take `CC(=O)N1CCN(c2nc3c(s2)CC(C(=O)Nc2cccc(Cl)c2)CC3)CC1` (centres undefined): the RP-LC retention time is 628 s. The compound `Cc1nc(-c2csc(S(=O)(=O)N3CCCC(C(=O)Nc4ccccc4Cl)C3)c2)no1` (centres undefined) showed an RP-LC retention time of 975 s. With `CCCCn1cc(S(=O)(=O)N2CCN(c3ccccc3C)CC2)c2cccnc21`, the RP-LC retention time came out at 1280 s.

For `CC(C)c1nnc(-c2cccnc2N2CCN(C(=O)c3ccc4[nH]ccc4c3)CC2)o1`, the RP-LC retention time stood at 749 s. Turning to `O=C(c1cccc(N2CCNC(c3ccccc3)C2)n1)N1CCSCC1` (centres undefined), the RP-LC retention time came out at 614 s. As for `O=c1ccc(-c2nc(-c3ccncc3)no2)nn1Cc1ccc(F)cc1Cl`, the RP-LC retention time was 904 s.

Compound `CC1=C(C(=O)N2CC(c3noc(COc4ccc(C)cc4)n3)C2)C2(CCCCC2)OC1=O` returned an RP-LC retention time of 1010 s. Under `COc1ccc(CCNS(=O)(=O)c2cc3c4c(c2)CCC(=O)N4CCC3)cc1OC` stands 766 s; under `CCc1ccc(NC(=O)CSc2cc(N3CCCCC3)ncn2)cc1`, 974 s. The compound `O=C(CN1CCC(c2nc(-c3cccs3)no2)CC1)NCc1ccccc1Cl` gave an RP-LC retention time of 690 s. In turn, `Cc1nnc(-c2cccnc2N2CCN(C(=O)CC3CCCC3)CC2)o1` gave an RP-LC retention time of 728 s. For `Cc1ccc(NC(=O)Cn2c(N3CCOCC3)nc(C)cc2=O)c(Cl)c1` the value was 755 s; for `CCCNC(=O)C1CCN(c2ccc(SCC(=O)Nc3ccc(CC)cc3)nn2)CC1`, 694 s; for `CO[C@H]1C(=O)N(C(C)C)[C@H]1C1CCN(S(=O)(=O)Cc2ccccc2)CC1`, 829 s. The compound `c1ccc(-n2ccnc2SCc2nc(-c3ccc4c(c3)OCO4)no2)cc1` registered an RP-LC retention time of 790 s.

Compound `CCOC(=O)C1CCCN(Cc2nc(-c3cc(OC)c(OC)c(OC)c3)no2)C1` (centres undefined) returned an RP-LC retention time of 774 s.

As to `O=C(CN1CCN(Cc2ccccc2F)C1=O)N1CCN(c2ccccc2)CC1`, the RP-LC retention time came out at 778 s. Turning to `COc1ccc(OCC(=O)N2CCc3cc(-c4csc(C)n4)ccc32)cc1`, the RP-LC retention time was determined as 958 s.

For the compound `Cc1cccc(-c2noc(C3CCCN3C(=O)C3CC(=O)N(c4ccc(C)c(C)c4)C3)n2)c1` (centres undefined), the RP-LC retention time turned out to be 1030 s.

Compound `CCn1cc(-c2nc(C)c(C(=O)Nc3ccc4c(c3)OCCO4)s2)c2cccnc21` gave an RP-LC retention time of 925 s.

In turn, `CC(C)(C)C(O)CCNC(=O)Nc1ccc2c(c1)OCO2` (centres undefined) showed an RP-LC retention time of 690 s.

`O=C(c1csc(N2CCN(c3ccc(F)cc3)CC2)n1)N1CCOCC1` returned an RP-LC retention time of 954 s.

As to `Cc1nc2cc(-c3noc(-c4ccccc4C(F)(F)F)n3)ccc2o1`, the RP-LC retention time was found to be 1080 s.

Values taken from the METLIN SMRT retention time set (Domingo-Almenara et al. 2019).
